Data taken from patent US20190014793A1, “METHOD OF PROVIDING NUTRITION TO INFANTS” (ABBOTT LABORATORIES, priority 2011, published 2019).

Key:
[1] = Amino acid solubility considerations (estimated concentration v. solubility limit); assay type: physicochemical; conditions: % of solubility limit at 25° C.
[2] = Merck Index, 11th Ed.; cited from earlier work

Row | SMILES | Sterile liquid protein concentration, % of limit [1] | Solubility limit of free amino acid, 25° C. [2]
1 | CC[C@H](C)[C@H](N)C(=O)O [Ile, Isoleucine] | 22% | 41.2 mg/mL
2 | CC(C)C[C@H](N)C(=O)O [Leu, Leucine] | 67% | 24.26 mg/mL
3 | N[C@@H](Cc1ccccc1)C(=O)O [Phe, L-phenylalanine] | 27% | 29.6 mg/mL

Second part, led by results:

Row | Sterile liquid protein concentration, % of limit [1] | SMILES | Solubility limit of free amino acid, 25° C. [2]
4 | 400% | N[C@@H](Cc1ccc(O)cc1)C(=O)O [Tyr, L-tyrosine] | 
5 | 13% | CC(C)[C@H](N)C(=O)O [Val, Valine] | 88.5 mg/mL
